Assay [1] deals with SW480. The experiment in a line: Cell-based antiproliferative (MTT) assay, SW480 colon carcinoma line. To be noted: Homo sapiens, SW480, 96 h; 4 days post addition of test compound. As to the method: (§1) The estrogen receptor negative epithelial breast carcinoma line (MDA-MB-435) was purchased from American Type Cell Culture Collection (ATCC; Rockville, Md.) and was grown in the medium recommended by ATCC. For analysis of the effect of the test compounds on growth of these cells, the cells were plated at 2000 cells per well in a 96-well tissue culture plate, and were incubated overnight at 37° C. with 5% CO2. The next day, the test compounds were dissolved in 100% dimethyl sulfoxide (DMSO) to yield a 10 mM stock solution. Each compound was diluted with sterile medium to 1 mM in a sufficient quantity to yield a final concentration of 120 μM. The compounds were then serially diluted in medium with 1.2% DMSO. One-fourth final volume of the diluted compounds was transferred to 96 well plates. Test compounds were assayed in duplicate. DMSO was added to a row of "control cells" such that the final concentration of DMSO in each well was 0.3%. Wells to which no cells were added served as the "blank." Wells to which no inhibitor was added served as "no inhibitor control". The plates were returned to the incubator, and 5 days post addition of test compound, were analyzed as described below.
3-(4,5-Dimethylthiazole-2-yl)-2,5-diphenyl-2H-tetrazolium bromide (thiazolyl blue; MTT) was added to each well to yield a final concentration of 1 mg/mL. The plates were then incubated at 37° C. for 3 hours. The plates were centrifuged at 1000 rpm for 5 minutes prior to aspiration of the MTT-containing medium. The MTT-containing medium was then removed and 100 μL 100% ethanol was added to each well to dissolve the resulting formazan metabolite. To ensure complete dissolution, plates were shaken for 15 minutes at room temperature. Absorbencies were read in a microtiter plate reader (Molecular Dynamics) at a wavelength of 570 nm with a 650 nm reference. Percent inhibition was calculated by subtracting the absorbance of the blank (no cell) wells from all wells, then subtracting the division of the average absorbance of each test duplicate by the average of the controls from 1.00. Inhibitory concentrations (IC50) were determined from the linear regression of a plot of the logarithm of the concentration versus the percent inhibition.
The colon carcinoma line SW480 also was obtained from the ATCC and was tested according to the same protocol provided above with the following modification: cell line SW480 was plated at 1000 cells per well and analyzed at 4 days post addition of test compound.

Assay [2] deals with MDA-MB-435. The experiment in a line: Cell-based antiproliferative (MTT) assay, MDA-MB-435 breast carcinoma line. To be noted: Homo sapiens, MDA-MB-435, 120 h; 5 days post addition of test compound; mostly one experiment, average where repeated; read-out: MDA-MB435 IC50. The protocol:
as §1, with “below. […] MTT) was added to each well to yield a final concentration of 1 mg/mL. The plates were then incubated at 37° C. for 3 hours. The plates were centrifuged at 1000 rpm for 5 minutes prior to aspiration of the MTT-containing medium. The MTT-containing medium was then removed and 100 μL 100% ethanol was added to each well to dissolve the resulting formazan metabolite. To ensure complete dissolution, plates were shaken for 15 minutes at room temperature. Absorbencies were read in a microtiter plate reader (Molecular Dynamics) at a wavelength of 570 nm with a 650 nm reference. Percent inhibition was calculated by subtracting the absorbance of the blank (no cell) wells from all wells, then subtracting the division of the average absorbance of each test duplicate by the average of the controls from 1.00. Inhibitory concentrations (IC50) were determined from the linear regression of a plot of the logarithm of the concentration versus the percent inhibition.” for “below.”

The target in assay [3] is T1, Cyclin E/CDK2 (Homo sapiens, UniProt P24941).
T1 construct: made in house; host or cells: insect cells
The experiment in a line: CDK2 FlashPlate Assay (inhibition of Rb phosphorylation by Cyclin E/CDK2). To be noted: Table IA; recombinant human Cyclin E/CDK2, Rb substrate, 25 minutes room temperature. The class given is biochemical.

These results are taken from US6130239A, “4-Alkenyl- and 4-alkynyloxindoles” (Hoffmann-La Roche Inc., priority 1999, dated 2000).

The structures appear in SMILES notation. Some results are limits rather than exact numbers.

For `CCC(N)(C#Cc1c(F)ccc2c1/C(=C/c1[nH]cnc1C)C(=O)N2)CC` [CCC, (Z)-4-[3-Amino-3-ethyl-1-pentynyl]-1,3-dihydro-5-fluoro-3-[(4-methyl-1H-imidazol-5-yl)methylene]-2H-indol-2-one], the IC50 – broadly, the concentration that inhibits the measured activity by half – in assay [1] was below 1000 nM.
As to `CNCC#Cc1c(F)ccc2c1/C(=C/c1[nH]cnc1C)C(=O)N2` [RR, (Z)-1,3-Dihydro-5-fluoro-4-[3-(N-methylamino)-1-propynyl]-3-[(4-methyl-1H-imidazol-5-yl)methylene]-2H-indol-2-one], the IC50 in assay [2] was below 3.5 µM; in assay [1] it was below 1000 nM; in assay [3], below 4 µM.
The matching figures for `CCC(O)C#Cc1c([N+](=O)[O-])ccc2c1/C(=C/c1[nH]cnc1C)C(=O)N2` (racemic) [PP, rac-(Z)-1,3-Dihydro-4-(3-hydroxy-1-pentynyl)-3-[(4-methyl-1H-imidazol-5-yl)methylene]-5-nitro-2H-indol-2-one]: below 3.5 µM, below 1000 nM and below 4 µM.
In the case of `CCC(O)C#Cc1c(F)ccc2c1/C(=C/c1[nH]cnc1C)C(=O)N2` (racemic) [OO, rac-(Z)-1,3-Dihydro-5-fluoro-4-(3-hydroxy-1-pentynyl)-3-[(4-methyl-1H-imidazol-5-yl)methylene]-2H-indol-2-one], the values for the concentration for half-maximal inhibition (IC50) in assay [2], in assay [1] and in assay [3] were below 3.5 µM, below 1000 nM and below 4 µM, respectively.
